Patent US20210179655A1, “Prodrugs of a JAK Inhibitor Compound for Treatment of Gastrointestinal Inflammatory Disease” (THERAVANCE BIOPHARMA R&D IP, LLC, priority 2015, published 2021)
Blank lines part the entries; values can stand above or below the molecule they belong to.

How the values were obtained:
[1] = test system: oxazolone-induced colitis; test: Mouse model of oxazolone-induced colitis; format: in vivo
Protocol: Oxazolone-induced colitis is an experimental model that has a histological resemblance to human ulcerative colitis (Heller et al. […], 2002, 17, 629-638). Adult BALB/C mice (25-28 g, 9-12 weeks of age) from BioNeeds (India) were used in the assay. On day 1, animals were lightly anesthetized with isoflurane and the hairs between the shoulder were carefully removed before oxazolone (6 mg/mouse, 100 μL, 4:1 acetone: olive oil formulation) or vehicle solution was slowly applied for skin sensitization. Six days after skin sensitization, the mice were fasted overnight, anesthetized with ketamine and xylazine administered IP, and a 1 mL syringe filled with oxazolone solution, was inserted carefully ˜3.8 cm into the colon of the mouse. Animals were kept in a head down position and oxazolone (0.5 mg/50 μL/mouse in 50% ethanol) or 50% ethanol/saline was rectally instilled very slowly over a minute. The mice were held vertically (head down) for another minute to ensure that the entire oxazolone solution remained inside the colon. Drug treatment (PO, BID or TID) or vehicle was initiated the evening prior to the oxazolone intrarectal (IR) challenge. On both first (Day 1) and second (Day 2) days post-oxazolone IR challenge, the Disease Activity Index (DAI) was assessed by treatment-blinded experimenters for each mouse, according to the following subscores: stool consistency (0, normal; 2, loose; 4, diarrhea), gross bleeding and hemoccult test (0, absence; 2, blood tinged; 4, overt blood presence), and weight loss (0, none; 1, 1%-5%; 2, 6%-10%; 3, 11%-15%; 4, more than 15%); DAI=average of (stool consistency+blood presence+weight loss scores).
An area-under-the-curve (AUC) calculation based on total DAI scores was performed to track disease progression during the course of the experiment. AUC for each experimental group was calculated as: AUC=[(Day 1−Day 0)*Average (DAI Score of Day 0 & Day 1)]+[(Day 2−Day 1)*Average (DAI Score of Day 1 & Day 2)]. A Student's t-test compared the DAI AUC score of the vehicle/vehicle and vehicle/oxazolone groups to evaluate whether disease was induced following oxazolone treatment. This was followed by a one way ANOVA, with Dunnett's post hoc test, to compare the DAI AUC score of the vehicle/oxazolone and test compound/oxazolone groups. Statistical significance was defined by an α level set at p<0.05.

[2] = Rat colon fecal homogenate stability; format: in vitro ADME; settings: male, rat colon fecal homogenate supernatant, read-out: T½ (In vitro colonic stability, loss of pro-drug)
Protocol: The objective of this study was to determine the stability of the present compounds in rat colon fecal homogenate, i.e. the half-life for decomposition in the presence of the β-glucuronidase in rat colon feces.
Following sacrifice of a naïve male rat (˜300 g) by cardiac puncture exsanguination, the colon was ligated and removed to an anaerobic chamber (AS-580, Anaerobe Systems). The fecal content was removed within the chamber and was diluted 1:10 (1 gram to 9 mL phosphate buffer) and then homogenized using a handheld Omni Tissue Master. The fecal homogenate was centrifuged at 2000 g for 10 min to remove bulk and the supernatant was removed and used for the incubations.
Test articles and a positive control (sulfasalazine) were prepared as 10 mM DMSO stocks. The final substrate concentration of each assay was 10 μM (30 μM for compound 5). Reactions were started by adding a 5 μL aliquot of diluted test compound stock into 300 μL of rat fecal supernatant-homogenate. At 0, 15, 30, 60, 90, and 120 min post reaction initiation, a 50 μL aliquot was removed into 200 μL of acetonitrile with 3% formic acid and an internal standard molecule. All samples were centrifuged at 2000 g for 10 min after which 50 μL of supernatant was diluted into 150 μL of water for analysis on an LC-MS system. In vitro half-lives for loss of pro-drug were calculated as follows: (T½=0.693/elimination rate constant).

[3] = Metabolic stability of comparison compounds in rat colon content; format: in vitro ADME; settings: 10 μM in rat colonic content, up to 120 min
Protocol: Colonic fecal content was harvested from a naïve male Sprague Dawley rat and was diluted 1:10 (1 gram to 9 mL phosphate buffer) and then homogenized using a handheld Omni Tissue Master. […] A 5 μL aliquot of diluted test compound was spiked into 300 μL of rat colonic content homogenate to begin the reaction at 37° C. Aliquots (50 μL) were removed from the incubation at the following time points (0, 15, 50, 85, and 120 min) and added into 200 μL of ACN with 3% formic acid and an internal standard molecule. […] All samples were centrifuged at 2000×g for 10 min after which 50 μL of supernatant was diluted into 150 μL of water and analyzed using a Thermo Q-Exactive LC-MS system. GraphPad Prism and Microsoft Excel were used to tabulate and plot the data.

[4] = test system: splenic NK cells; test: Immunosuppression effects in mouse splenic natural killer (NK) cells; format: in vivo; settings: mouse, oral dosing for three days
Protocol: Adult male Balb/C mice (12-14 weeks of age) from Harlan were used for the study. […] Spleens were harvested 30 min or 3 h post last dose and crushed immediately for cell subtype staining. Prior to fixation, fluorophore-labelled antibodies for CD19 (FITC; B cells), CD3e (PE; pan T cells) and DX5 (APC; NK cells) were incubated with splenocyte samples from each animal to allow for simultaneous, multiple subtype % analysis on the flow cytometer. The number of total spleen cells for each animal was measured by Scepter™ 2.0 Handheld Automated Cell Counter.
The absolute number of lymphocyte subtype population (e.g., splenic B, T and NK cells) was calculated from the percentage of each subtype times total spleen cells for each animal. A one way ANOVA, with Dunnett's post hoc test, was used to compare the splenic lymphocytes number of the vehicle and test compound groups. The a level was set at p<0.05. Data were presented as the mean SEM for each group.

half-life at 10 μM [2]: 1 to 13 min
SMILES: C[C@@H]1CCN(C(=O)CC#N)C[C@@H]1N(C)c1ncnc2c1ccn2C(=O)N(C)CCN(C)C(=O)OCc1ccc(O[C@@H]2O[C@H](C(=O)O)[C@@H](O)[C@H](O)[C@H]2O)cc1 [Compound 4, (2S,3S,4S,5R,6S)-6-(4-((((2-(4-(((3R,4R)-1-(2-cyanoacetyl)-4-methylpiperidin-3-yl)(methyl)amino)-N-methyl-7H-pyrrolo[2,3-d]pyrimidine-7-carboxamido)ethyl)(methyl)carbamoyl)oxy)methyl)phenoxy)-3,4,5-trihydroxytetrahydro-2H-pyran-2-carboxylic acid]
reversal of oxazolone-induced colitis (DAI AUC score) ([1]; separate experiment, 3, 10, and 30 mg/kg, PO, BID, similar magnitude to tofacitinib 30 mg/kg): significant reversal

half-life at 30 μM ([2]; 30 μM): 6 min
SMILES: Cc1cc(COC(=O)N(C)CCN(C)C(=O)n2ccc3c(N(C)[C@H]4CN(C(=O)CC#N)CC[C@H]4C)ncnc32)ccc1O[C@@H]1O[C@H](C(=O)O)[C@@H](O)[C@H](O)[C@H]1O [Compound 5, (2S,3S,4S,5R,6S)-6-(4-((((2-(4-(((3R,4R)-1-(2-cyanoacetyl)-4-methylpiperidin-3-yl)(methyl)amino)-N-methyl-7H-pyrrolo[2,3-d]pyrimidine-7-carboxamido)ethyl)(methyl)carbamoyl)oxy)methyl)-2-methylphenoxy)-3,4,5-trihydroxytetrahydro-2H-pyran-2-carboxylic acid]

half-life at 10 μM [2]: 7 min
SMILES: C[C@@H]1CCN(C(=O)CC#N)C[C@@H]1N(C)c1ncnc2c1ccn2C(=O)N(C)CCN(C)C(=O)OCc1ccc(O[C@@H]2O[C@H](C(=O)O)[C@@H](O)[C@H](O)[C@H]2O)c(Cl)c1 [Compound 6, (2S,3S,4S,5R,6S)-6-(2-chloro-4-((((2-(4-(((3R,4R)-1-(2-cyanoacetyl)-4-methylpiperidin-3-yl)(methyl)amino)-N-methyl-7H-pyrrolo[2,3-d]pyrimidine-7-carboxamido)ethyl)(methyl)carbamoyl)oxy)methyl)phenoxy)-3,4,5-trihydroxytetrahydro-2H-pyran-2-carboxylic acid]

half-life at 10 μM [2]: 3 to 8 min
SMILES: COc1cc(COC(=O)N(C)CCN(C)C(=O)n2ccc3c(N(C)[C@H]4CN(C(=O)CC#N)CC[C@H]4C)ncnc32)ccc1O[C@@H]1O[C@H](C(=O)O)[C@@H](O)[C@H](O)[C@H]1O [Compound 7, (2S,3S,4S,5R,6S)-6-(4-((((2-(4-(((3R,4R)-1-(2-cyanoacetyl)-4-methylpiperidin-3-yl)(methyl)amino)-N-methyl-7H-pyrrolo[2,3-d]pyrimidine-7-carboxamido)ethyl)(methyl)carbamoyl)oxy)methyl)-2-methoxyphenoxy)-3,4,5-trihydroxytetrahydro-2H-pyran-2-carboxylic acid]

SMILES: CN(CCN(C)C(=O)OCc1ccc(O[C@@H]2O[C@H](C(=O)O)[C@@H](O)[C@H](O)[C@H]2O)c([N+](=O)[O-])c1)C(=O)Nc1ccc(O)c(C(=O)O)c1 [Compound C-1]
generation of active metabolite from the pro-drug [3]: failed to generate any measurable amounts

SMILES: Cc1cc(S(C)(=O)=O)ncc1-c1ccc2c(c1)cc(-c1cncc(F)c1C)n2C(=O)N(C)CCN(C)C(=O)OCc1ccc(O[C@@H]2O[C@H](C(=O)O)[C@@H](O)[C@H](O)[C@H]2O)c([N+](=O)[O-])c1 [Compound C-2]
generation of active metabolite from the pro-drug [3]: failed to generate any measurable amounts

SMILES: C[C@@H]1CCN(C(=O)CC#N)C[C@@H]1N(C)c1ncnc2[nH]ccc12 [Tofacitinib, 3-((3R,4R)-4-methyl-3-(methyl(7H-pyrrolo[2,3-d]pyrimidin-4-yl)amino)piperidin-1-yl)-3-oxopropanenitrile, reference compound]
In vivo efficacy (oxazolone colitis), effective dose ([1]; Effective dose that exhibits a comparable pharmacological effect in the oxazolone model compared to its vehicle): 30 mg/kg
Systemic functional activity (splenic NK depletion) [4]: 10 mg/kg
